Key:
SK-HEP-1 cells [1] = assay: Cell protection assay: viability of SK-HEP-1 cells incubated with fludarabine, CCK-8 assay, 4-parameter logistic potency analysis; conditions: fludarabine 10 μg/ml, 72 hours
Procedure: The human liver sinusoidal endothelial cell line SK-HEP-1 was obtained from the American Type Culture Collection (ATCC) and cultured in complete EMEM medium in a humidified cell incubator containing 5% CO2 at 37° C. using gelatin-coated tissue culture flasks. The cells were sub-cultured by trypsin mediated detachment every 2-3 days following the instructions provided by the ATCC. Cells were serially transferred into culture flasks when the culture was 80-90% confluent and used for the protection assay between passages +3 to +10. That is, 3 to 10 passages beyond the characterised passage number of the cells received from the ATCC.
A suspension of SK-HEP-1 for use in the cell protection assay was prepared and counted. […] Cells were counted using a Neubauer counting chamber in the presence of trypan blue to assess the percent viability of the cultures.
Fifty μl of the cell suspensions, or medium alone for blanks, prepared at the concentrations described above was placed in wells of a poly-D-lysine coated 96-well microtiter plate. […] Following addition of the solution to the wells, the plates were returned to the incubator and cell viability was assessed after 24, 48 or 72 hr. […]
After the specified period of incubation, cell viability in each well was measured using the CCK-8 cell counting kit (Sigma Aldrich, Milan, Italy) following the manufacturer's instructions. […]

HMEC-1 cells = assay: Cell protection assay: viability of HMEC-1 cells incubated with fludarabine, MTT assay; assay type: cell-based, human; conditions: 72 hours
Procedure: The MTT assay is based on the cleavage of tetrazolium salts by mitochondrial dehydrogenase in viable cells leading to the production of an insoluble formazan dye. MTT dye, 10 μl of a 2 mg/ml solution in D-PBS, was added to each well and then the plates were incubated for 3 hours. Plates were then centrifuged and each well aspirated. The dye was solubilised with 200 μl of a mixture DMSO/Ethanol (1:1) and absorbance in the wells was read at 570-590 nm on a microplate reader. A blank well containing only media and cytotoxic drug (fludarabine or doxorubicin) was also run as a control in all experiments.
HMEC-1 cells were cultivated according to the above mentioned procedure. A cell density of 500,000 cells/ml was used for the assay. […] Defibrotide was added to the microplate well at a concentration of 100, 10 or 1 μg/ml. Four replicates of each condition were performed. The viability of the HMEC cells was assessed after 72 hours with the MTT assay described above.
HMEC-1 cells were cultivated according to the above mentioned procedure. A cell density of about 500,000 cells/ml was used for the experiment. The cytotoxic agent was fludarabine at a concentration of 50 μg/ml. Synthetic oligonucleotides (Adenine-Cytosine (AC) of about 16 kDa or Adenine-Cytosine-Guanine-Thymine (ACGT) of about 17 kDa) or defibrotide were added to each well at varying concentrations. Specifically, the AC oligonucleotides were added to each well at a concentration of 1, 10, 100 or […], whereas the ACGT oligonucleotides were added to each well at a concentration of 12.5, 25 or 50 μg/ml. […] Each treatment condition was performed in triplicate. The viability was assessed with the MTT assay after 24, 48 and 72 hours.

SK-HEP-1 cells [2] = assay: Cell protection assay: viability of SK-HEP-1 cells incubated with doxorubicin, CCK-8 assay; assay type: cell-based, human; conditions: doxorubicin 0.1 μg/ml, defibrotide 50 μg/ml or greater, 72 hours
Procedure: The cytotoxic agent was doxorubicin at a concentration of 0.1 μg/ml. Defibrotide was added to the microplate well at a concentration of 100, 50, 20, 10, 5 or 1 μg/ml. Three replicates of each condition were performed. The viability was assessed after 72 hours with the CCK-8 assay kit as described above. […] (FIG. 2).

## N[C@@H](CCC(=O)N[C@@H](CS)C(=O)NCC(=O)O)C(=O)O [glutathione, Glutathione]
SK-HEP-1 cells [1]; ACGT or glutathione 1.25-80 μg/ml, tPA 10-320 IU/ml
  protection from fludarabine-induced cytotoxicity (in words): No protection

## defibrotide
HMEC-1 cells; fludarabine 10 μg/ml, defibrotide 100 μg/ml
  protection effect against fludarabine-induced cytotoxicity: more than 50%
HMEC-1 cells; fludarabine 10 μg/ml, defibrotide 100, 10 or 1 μg/ml
  protection from fludarabine-induced cytotoxicity (in words): protected the cells from fludarabine-induced cytotoxicity in a dose-dependent manner
HMEC-1 cells; fludarabine 50 μg/ml, AC 1-500 μg/ml, ACGT 12.5-50 μg/ml, defibrotide 5-100 μg/ml
  protection from fludarabine-induced cytotoxicity (in words): dose-dependent protection
SK-HEP-1 cells [2]
  protection from doxorubicin-induced cytotoxicity (in words): significantly protected
SK-HEP-1 cells [1]; defibrotide 40 μg/ml or greater
  cells surviving: greater than 80%
